Source: patent publication US12630498B2 (Genzyme Corporation, priority 2019, dated 2026)

Key:
[1] = target: T1, human Cystic Fibrosis Transmembrane Conductance Regulator (CFTR) harboring the ΔF508 mutation (Homo sapiens, UniProt P13569, DEL508-508); assay: H441 cell ΔF508-CFTR-HRP cell surface assay (Emax and EC50); format: cell-based; details: for Emax: NCI-H441, NA = Not active
T1 construct: expressed in transfected cells; host or cells: H441 carcinoma line (G418-selected)
Outline: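 H441 and 41o- bronchial epithelial cells expressing ΔF508-CFTR with an extracellular-loop-4 HRP tag were treated with a 15-point compound series (24.5–0.001 μM) for two nights, H441 at 27° C, 41o- at 37° C with 0.0005 mg/ml doxycycline. Surface HRP luminescence read; % of maximum VX809 signal and EC50 derived.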

[2] = target: T2, CFTR-mediated transepithelial chloride transport in primary human bronchial epithelial cells from a ΔF508 homozygous CF donor (Homo sapiens, UniProt P13569, DEL508-508); assay: TECC24 recording of CFTR-mediated transepithelial chloride transport in CF-HBE cells (AUC fold over DMSO); format: cell-based; details: test agent 10 μM, 48 hours incubation, AUC of forskolin-stimulated IEQ relative to DMSO
T2 construct: Primary human bronchial epithelial cells from a ΔF508 homozygous CF donor; host or cells: primary CF-HBE cells, ΔF508 homozygous donor
Outline: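 Equivalent Cl⁻ current was derived from transepithelial voltage and resistance, and its AUC from forskolin (10 μM) to CFTRinh-172 (20 μM) was divided by the DMSO AUC. Benzamil 10 μM blocked ENaC. Cells were ΔF508-homozygous primary bronchial epithelia pretreated 48 h at 36.5 °C in IL-13 medium.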

T2 sequence (P13569 with tags, fused parts or gaps DEL508-508): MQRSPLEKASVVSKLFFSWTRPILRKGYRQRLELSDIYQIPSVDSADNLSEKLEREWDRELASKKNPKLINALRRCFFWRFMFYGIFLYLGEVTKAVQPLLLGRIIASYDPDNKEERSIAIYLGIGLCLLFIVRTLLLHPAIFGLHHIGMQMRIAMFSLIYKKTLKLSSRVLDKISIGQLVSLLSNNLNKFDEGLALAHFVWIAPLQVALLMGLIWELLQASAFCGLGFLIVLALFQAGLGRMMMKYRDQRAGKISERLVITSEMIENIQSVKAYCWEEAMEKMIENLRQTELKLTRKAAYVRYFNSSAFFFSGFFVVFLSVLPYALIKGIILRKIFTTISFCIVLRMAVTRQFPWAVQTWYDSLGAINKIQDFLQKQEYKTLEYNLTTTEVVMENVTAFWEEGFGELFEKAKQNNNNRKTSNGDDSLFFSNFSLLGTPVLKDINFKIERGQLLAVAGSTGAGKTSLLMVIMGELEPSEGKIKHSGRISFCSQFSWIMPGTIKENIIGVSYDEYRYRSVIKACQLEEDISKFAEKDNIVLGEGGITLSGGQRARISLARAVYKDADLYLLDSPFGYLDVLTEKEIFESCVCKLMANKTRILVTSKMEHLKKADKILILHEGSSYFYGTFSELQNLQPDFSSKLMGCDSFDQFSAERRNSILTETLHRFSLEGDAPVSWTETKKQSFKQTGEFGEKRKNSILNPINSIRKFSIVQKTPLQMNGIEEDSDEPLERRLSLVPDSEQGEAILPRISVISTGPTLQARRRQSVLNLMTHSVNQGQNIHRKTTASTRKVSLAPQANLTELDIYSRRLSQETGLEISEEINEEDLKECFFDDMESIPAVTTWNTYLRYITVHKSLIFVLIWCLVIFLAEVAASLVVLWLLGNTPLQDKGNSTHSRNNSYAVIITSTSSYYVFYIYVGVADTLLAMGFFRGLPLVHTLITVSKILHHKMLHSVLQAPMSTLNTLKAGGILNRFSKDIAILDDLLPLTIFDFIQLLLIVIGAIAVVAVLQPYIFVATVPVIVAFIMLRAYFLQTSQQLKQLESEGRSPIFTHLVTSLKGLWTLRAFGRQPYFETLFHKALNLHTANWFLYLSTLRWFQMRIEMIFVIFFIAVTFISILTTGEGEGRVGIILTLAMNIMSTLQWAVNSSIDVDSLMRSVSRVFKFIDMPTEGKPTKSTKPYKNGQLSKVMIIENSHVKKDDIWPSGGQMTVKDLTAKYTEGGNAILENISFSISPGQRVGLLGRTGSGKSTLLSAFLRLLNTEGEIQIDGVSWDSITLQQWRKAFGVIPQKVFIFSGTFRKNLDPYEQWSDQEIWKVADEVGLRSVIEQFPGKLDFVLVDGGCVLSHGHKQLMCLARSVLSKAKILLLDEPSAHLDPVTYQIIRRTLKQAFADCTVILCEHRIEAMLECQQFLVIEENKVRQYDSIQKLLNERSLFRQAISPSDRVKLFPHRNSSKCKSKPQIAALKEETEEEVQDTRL
T1 sequence (P13569 with tags, fused parts or gaps DEL508-508): as above

O=C(N[C@H](C(=O)O)C(c1ccccc1)c1ccccc1)c1ccc2ccccc2c1OCc1ccc(OC(F)(F)F)cc1 [Example 189, (S)-3,3-diphenyl-2-(1-((4-(trifluoromethoxy)benzyl)oxy)-2-naphthamido)propanoic Acid]
EC50 [1]: 2400 nM | Emax [1]: 14.3% | TECC24 AUC fold over DMSO @10 μM [2]: C (“C” refers to AUC @10 uM <4)

CCC(C)(C)[C@H](NC(=O)c1ccc2ccc(C)cc2c1OCCCC(C)C)C(=O)O [Example 294, 3,3-Dimethyl-2-{[7-methyl-1-(4-methyl-pentyloxy)-naphthalene-2-carbonyl]-amino}-pentanoic Acid]
EC50 [1]: 1000 nM | Emax [1]: 281% | TECC24 AUC fold over DMSO @10 μM [2]: A (“A” refers to AUC @10 uM >6)

CCC(C)(C)[C@H](NC(=O)c1ccc2ccc(C)cc2c1OCCCC(C)(C)C)C(=O)O [Example 257, (2S)-2-[[1-(4,4-dimethylpentoxy)-7-methyl-naphthalene-2-carbonyl]amino]-3,3-dimethyl-pentanoic Acid]
EC50 [1]: 600 nM | Emax [1]: 369% | TECC24 AUC fold over DMSO @10 μM [2]: A (“A” refers to AUC @10 uM >6)

C[C@@H](OC(C)(C)C)C(NC(=O)c1ccc2ccccc2c1OCc1ccc(C(F)(F)F)cc1)C(=O)O (stereo partly drawn) [Example 133, (3R)-3-(tert-butoxy)-2-(1-((4-(trifluoromethyl)benzyl)oxy)-2-naphthamido)butanoic Acid]
EC50 [1]: 1200 nM | Emax [1]: 151% | TECC24 AUC fold over DMSO @10 μM [2]: A (“A” refers to AUC @10 uM >6)

CC(C)(C)[C@@H](NC(=O)c1ccc2ccc(F)cc2c1OCc1ccc(OC(F)(F)F)cc1)C(=O)O [Example 259, (2R)-2-[[7-fluoro-1-[[4-(trifluoromethoxy)phenyl]methoxy]naphthalene-2-carbonyl]amino]-3,3-dimethyl-butanoic Acid]
EC50 [1]: 1700 nM | Emax [1]: 63.7% | TECC24 AUC fold over DMSO @10 μM [2]: A (“A” refers to AUC @10 uM >6)

CC(C)(C)[C@@H](NC(=O)c1ccc2ccc(F)cc2c1OCc1ccc(C(F)(F)F)cc1)C(=O)O [Example 261, (2R)-2-[[7-fluoro-1-[[4-(trifluoromethyl)phenyl]methoxy]naphthalene-2-carbonyl]amino]-3,3-dimethyl-butanoic Acid]
EC50 [1]: 900 nM | Emax [1]: 68.4% | TECC24 AUC fold over DMSO @10 μM [2]: A (“A” refers to AUC @10 uM >6)

CC1(C(NC(=O)c2ccc3ccccc3c2OCc2ccc(S(=O)(=O)C(F)(F)F)cc2)C(=O)O)CCCCC1 (stereo not drawn) [Example 77, 2-(1-methylcyclohexyl)-2-(1-((4-((trifluoromethyl)sulfonyl)benzyl)oxy)-2-naphthamido)acetic Acid]
EC50 [1]: 700 nM | Emax [1]: 78.9% | TECC24 AUC fold over DMSO @10 μM [2]: C (“C” refers to AUC @10 uM <4)

CC(C)(C)[C@H](NC(=O)c1ccc2ccccc2c1OCC1CCCCC1)C(=O)O [Example 72, (S)-2-(1-(cyclohexylmethoxy)-2-naphthamido)-3,3-dimethylbutanoic Acid]
EC50 [1]: 3700 nM | Emax [1]: 144% | TECC24 AUC fold over DMSO @10 μM [2]: C (“C” refers to AUC @10 uM <4)

CC1(C(NC(=O)c2ccc3cc(F)ccc3c2OCc2ccc(SC(F)(F)F)cc2)C(=O)O)CCCCC1 (stereo not drawn) [Example 69, 2-(6-fluoro-1-((4-((trifluoromethyl)thio)benzyl)oxy)-2-naphthamido)-2-(1-methylcyclohexyl)acetic Acid]
EC50 [1]: 400 nM | Emax [1]: 57.7% | TECC24 AUC fold over DMSO @10 μM [2]: C (“C” refers to AUC @10 uM <4)

CCC(C)(C)[C@H](NC(=O)c1ccc2ccc(OC)cc2c1OCc1ccc(C(F)(F)F)cc1)C(=O)O [Example 309, (S)-2-(7-methoxy-1-((4-(trifluoromethyl)benzyl)oxy)-2-naphthamido)-3,3-dimethylpentanoic Acid]
EC50 [1]: 300 nM | Emax [1]: 349% | TECC24 AUC fold over DMSO @10 μM [2]: A (“A” refers to AUC @10 uM >6)

O=C(N[C@H](C(=O)O)C(c1ccccc1)c1ccccc1)c1ccc2cc(F)ccc2c1OCc1ccc(C(F)(F)F)cc1 [Example 196]
EC50 [1]: 300 nM | Emax [1]: 101% | TECC24 AUC fold over DMSO @10 μM [2]: C (“C” refers to AUC @10 uM <4)

CC1(C(NC(=O)c2ccc3ccccc3c2OCc2ccc(C(F)(F)F)cc2)C(=O)O)CCCCC1 (stereo not drawn) [Example 80, 2-(1-methylcyclohexyl)-2-(1-((4-(trifluoromethyl)benzyl)oxy)-2-naphthamido)acetic Acid]
EC50 [1]: 400 nM | Emax [1]: 195% | TECC24 AUC fold over DMSO @10 μM [2]: C (“C” refers to AUC @10 uM <4)

CC(C)(SC1CCCC1)[C@H](NC(=O)c1ccc2ccccc2c1OCC1CCCCC1)C(=O)O [Example 170, (R)-2-(1-(cyclohexylmethoxy)-2-naphthamido)-3-(cyclopentylthio)-3-methylbutanoic Acid]
EC50 [1]: 5000 nM | Emax [1]: 143% | TECC24 AUC fold over DMSO @10 μM [2]: C (“C” refers to AUC @10 uM <4)

CC(C)(C)[C@H](NC(=O)c1ccc2ccccc2c1OCc1ccc(C(F)(F)F)cc1)C(=O)O [Example 74]
EC50 [1]: 800 nM | Emax [1]: 216% | TECC24 AUC fold over DMSO @10 μM [2]: A (“A” refers to AUC @10 uM >6)

CC(C)(SC1CCCC1)[C@H](NC(=O)c1ccc2ccccc2c1OCc1ccc(C(F)(F)F)cc1)C(=O)O [Example 168, (R)-3-(cyclopentylthio)-3-methyl-2-(1-((4-(trifluoromethyl)benzyl)oxy)-2-naphthamido)butanoic Acid]
EC50 [1]: 800 nM | Emax [1]: 157% | TECC24 AUC fold over DMSO @10 μM [2]: B (“B” refers to AUC @10 uM between 4-6)

O=C(N[C@H](C(=O)O)C1Cc2ccccc2C1)c1ccc2ccccc2c1OCc1ccc(C(F)(F)F)cc1 [Example 143, (S)-2-(2,3-dihydro-1H-inden-2-yl)-2-(1-((4-(trifluoromethyl)benzyl)oxy)-2-naphthamido)acetic Acid]
EC50 [1]: 1900 nM | Emax [1]: 135% | TECC24 AUC fold over DMSO @10 μM [2]: B (“B” refers to AUC @10 uM between 4-6)

O=C(N[C@@H](Cc1ccc(C(F)(F)F)cc1)C(=O)O)c1ccc2cc(F)ccc2c1OCc1ccc(C(F)(F)F)cc1 [Example 197, (S)-2-(6-fluoro-1-((4-(trifluoromethyl)benzyl)oxy)-2-naphthamido)-3-(4-(trifluoromethyl)phenyl)propanoic Acid]
EC50 [1]: 11500 nM | Emax [1]: 80.8% | TECC24 AUC fold over DMSO @10 μM [2]: B (“B” refers to AUC @10 uM between 4-6)

CC(C)(C)[C@H](NC(=O)c1ccc2ccc(C#N)cc2c1OCc1ccc(OC(F)(F)F)cc1)C(=O)O [Example 254, (2S)-2-[[7-cyano-1-[[4-(trifluoromethoxy)phenyl]methoxy]naphthalene-2-carbonyl]amino]-3,3-dimethyl-butanoic Acid]
EC50 [1]: 700 nM | Emax [1]: 176% | TECC24 AUC fold over DMSO @10 μM [2]: A (“A” refers to AUC @10 uM >6)

CC(C)(C)[C@H](NC(=O)c1ccc2cc(N)ccc2c1OCc1ccc(C(F)(F)F)cc1)C(=O)O [Example 52, (S)-2-(6-amino-1-((4-(trifluoromethyl)benzyl)oxy)-2-naphthamido)-3,3-dimethylbutanoic Acid]
EC50 [1]: 7300 nM | Emax [1]: 91.4% | TECC24 AUC fold over DMSO @10 μM [2]: C (“C” refers to AUC @10 uM <4)

CC(C)(C)[C@H](NC(=O)c1ccc2ccccc2c1OCC1CC2CCC1C2)C(=O)O (stereo partly drawn) [Example 41, (2S)-2-(1-(bicyclo[2.2.1]heptan-2-ylmethoxy)-2-naphthamido)-3,3-dimethylbutanoic Acid]
EC50 [1]: 3700 nM | Emax [1]: 112% | TECC24 AUC fold over DMSO @10 μM [2]: C (“C” refers to AUC @10 uM <4)

CC(C)(C)[C@H](NC(=O)c1ccc2ccccc2c1OCc1ccc(C#N)cc1)C(=O)O [Example 31, (S)-2-(1-((4-cyanobenzyl)oxy)-2-naphthamido)-3,3-dimethylbutanoic Acid]
EC50 [1]: 8000 nM | Emax [1]: 77.1% | TECC24 AUC fold over DMSO @10 μM [2]: C (“C” refers to AUC @10 uM <4)

CCCC(C)(CC)[C@H](NC(=O)c1ccc2ccc(Cl)cc2c1OCc1ccc(OC(F)(F)F)cc1)C(=O)O (stereo partly drawn) [Example 251, (2S)-2-[[7-chloro-1-[[4-(trifluoromethoxy)phenyl]methoxy]naphthalene-2-carbonyl]amino]-3-ethyl-3-methyl-hexanoic Acid]
EC50 [1]: 100 nM | Emax [1]: 267% | TECC24 AUC fold over DMSO @10 μM [2]: A (“A” refers to AUC @10 uM >6)

CCC(C)(C)[C@H](NC(=O)c1ccc2cc(C)ccc2c1OCc1ccc(C(F)(F)F)cc1)C(=O)O [Example 225, (2S)-3,3-dimethyl-2-[[6-methyl-1-[[4-(trifluoromethyl)phenyl]methoxy]naphthalene-2-carbonyl]amino]pentanoic Acid]
EC50 [1]: 12200 nM | Emax [1]: 97% | TECC24 AUC fold over DMSO @10 μM [2]: A (“A” refers to AUC @10 uM >6)

CCC(C)(C)[C@H](NC(=O)c1ccc2ccc(Cl)cc2c1OCc1ccc(OC(F)(F)F)cc1)C(=O)O [Example 277, (S)-2-(7-chloro-1-((4-(trifluoromethoxy)benzyl)oxy)-2-naphthamido)-3,3-dimethylpentanoic Acid]
EC50 [1]: 100 nM | Emax [1]: 186% | TECC24 AUC fold over DMSO @10 μM [2]: A (“A” refers to AUC @10 uM >6)

CC(OCc1ccccc1)[C@H](NC(=O)c1ccc2cc(F)ccc2c1OCc1ccc(Cl)c(Cl)c1)C(=O)O (stereo in doubt) [Example 208, O-benzyl-N-(1-((3,4-dichlorobenzyl)oxy)-6-fluoro-2-naphthoyl)-L-allothreonine]
EC50 [1]: 1500 nM | Emax [1]: 154% | TECC24 AUC fold over DMSO @10 μM [2]: C (“C” refers to AUC @10 uM <4)
